Experimental data from patent US8563254B2, “Biomarkers of tumor pharmacodynamic response” (Novartis AG, priority 2009, dated 2013).

Test system: A375 cells
Assay: Quantitative RT-PCR of IL-8 mRNA, A375
Assay type: cell-based, human
Settings: A375, 0.3 μM, 16 hr
Procedure: Total cellular RNA was extracted from the GTL-16 and A375 cell lines using RNeasy mini kit (Qiagen, Inc., Valencia, Calif., USA). Total RNA quantitation was carried out using a RiboGreen assay (Invitrogen Corporation, Carlsbad, Calif., USA). 1 μg of total RNA was reverse transcribed using AMV reverse transcriptase (Reverse Transcription Kit, Promega U.S., Madison, Wis., USA). A 20 μl reaction cocktail was prepared as follows; 1 μg total RNA in 10 μl of RNase, DNase-free H2O, 4 μl of 25 mM MgCl2, 2 μl of 10× reverse transcriptase buffer, 2 μl of 10 mM dNTP's, 1 μl of 500 μg ml^−1 random hexamers, 1.5 μl of 10 μl ml^−1, and 40 U μl^−1 0.5 μl of recombinant RNase Inhibitor. Real time PCR was performed using a 7900HT fast real-time PCR system (Applied Biosystems, Foster City, Calif., USA) using the Power SYBR Green PCR master mix (Applied Biosystems). The primers for IL-8 and GAPDH were: IL-8 sense: 5′-[…]-3′ (SEQ ID NO:3) and IL-8 antisense:
5′-[…]-3′ (SEQ ID NO:4); and GAPDH sense:
5′-[…]-3′ (SEQ ID NO:5), and GAPDH antisense;
5′-[…]-3′. (SEQ ID NO:6) The amplification process involved an initial 5 min denaturing step at 95° C. This was followed by annealing reactions for both IL-8 and GAPDH, of 45 s at 95° C. with 230 s at 68° C. for 34 cycles and 1 min at 95° C. with 1 min at 60° C. and 1 min 72° C. for 30 cycles, respectively. The final extension was 10 min at 72° C. […]

Which “IL-8 mRNA levels lower in treated versus untreated cells” value does the source give for `CCNC(=O)c1noc(-c2cc(C(C)C)c(O)cc2O)c1-c1ccc(CN2CCOCC2)cc1` [NVP-AUY922, 5-(2,4-Dihydroxy-5-isopropyl-phenyl)-4-(4-morhpolin-4-ylmethyl-phenyl)-isoxazole-3-carboxylic acid ethylamide] here?
The value was 95%.
